# Test results: PubChem BioAssay AID624254 (Broad Institute, 2012)
# Active and inactive are the calls of the source. The rule behind the calls is not given here.
# Test: Luciferase light induction in v cholerae bh1651, agonist dose response, confirmatory (AID 624254)
# Details: V. cholerae BH1651 luxOD47E, luciferase light induction, 6 h; at 50 µM (top of the series)
row,Compound,activation (light increase)
1,CCOc1ccc2cc(C#N)c(SCC(=O)N3CCC(C)CC3)nc2c1,inactive
2,CN(C)c1nc(N)ncc1-c1ccc(Oc2ccccc2)cc1,inactive
3,Cc1ccc(C)c(NC(=O)CN(C)C(=O)CCN2C(=O)c3ccccc3C2=O)c1,inactive
4,CC(C)c1ccc(OCC(=O)NC2CCCC2)cc1,inactive
5,CCC(C)NS(=O)(=O)c1ccc(S(=O)(=O)Nc2cc3c(cc2C(C)=O)OCO3)cc1 (stereo not given),inactive
6,O=C(Cc1ccc2c(c1)CCCC2)Nc1ccccc1Br,inactive
7,CCOC(=O)c1c(C)[nH]c(C(=O)COC(=O)C2(C)CC2(Cl)Cl)c1C (stereo not given),inactive
8,COc1ccc(-c2nc(N)ncc2Oc2ccccc2Br)c(O)c1,inactive
9,CCCn1nnnc1NCc1ccc(OC)cc1,inactive
10,CN(C1CCCCC1)S(=O)(=O)CCNC(=O)c1ccccc1,inactive
11,O=c1c2cc(N3CCOCC3)ccc2[nH]c(=S)n1CC1CCCO1 (stereo not given),inactive
12,CCc1ccc(C(=O)Nc2ccc(Br)cn2)cc1,inactive
13,CCCCOC(=O)n1c(=O)oc2ccccc21,inactive
14,CN(CC(=O)Nc1ccccc1Cl)C(=O)c1cccc(-n2cccc2)c1,inactive
15,CSc1ccccc1NC(=O)COc1ccc(S(=O)(=O)N2CCCC2)cc1,inactive
16,Cn1cnc(S(=O)(=O)Nc2ccc(C(F)(F)F)cc2)c1,inactive
17,COc1ccc2c(c1OC)C(=O)N(c1nccs1)C2,inactive
18,CC(=O)c1cc2c(cc1NC(=O)Cc1c(C)noc1C)OCO2,inactive
19,CCOC(=O)N1CCC(NC(=O)C2CCN(C(=O)N3CC(C)Oc4ccc(C)cc43)CC2)CC1 (stereo not given),inactive
20,COC(=O)Cc1c(C)c2ccc(OC(=O)c3ccccc3)cc2oc1=O,inactive
21,COc1c(C)cccc1C(=O)Nc1ccc(OCC(=O)N2CCOCC2)cc1C,inactive
22,Cc1ccccc1NS(=O)(=O)c1cn(C)cn1,inactive
23,COc1ccc(-c2ccc(-c3nnc(Cc4ccc(OC)c(OC)c4)o3)cc2)cc1,inactive
24,Cc1cccc(N2CCN(C(=O)Cn3cccc3C(=O)c3ccccc3)CC2)c1C,inactive
25,CCOc1ccc(S(=O)(=O)N(CCO)CCO)cc1-c1nc2c(C(C)(C)C)nn(C)c2c(=O)[nH]1,inactive

row,Compound,activation (light increase)
1,CCCCOc1ccc(NS(=O)(=O)c2cn(C)cn2)cc1,inactive
2,O=C(c1cccc(S(=O)(=O)N2CCc3ccccc32)c1)N1CCOCC1,inactive
3,CCCn1nnnc1NCc1ccc(N2CCCC2)cc1,inactive
4,O=C(NCc1ccccc1F)C(=O)NCC1CCCN1S(=O)(=O)c1ccccc1 (stereo not given),inactive
5,CCc1nc(NCCCN2CCOCC2)c2oc3ccccc3c2n1,inactive
6,CCc1sc(N(C(=O)Cc2ccccc2)c2ccc(F)cc2)nc1-c1ccccc1,inactive
7,Cc1ncc(S(=O)(=O)c2ccccc2)c(-c2ccc(Cl)cc2Cl)n1,inactive
8,COc1ccccc1N1CCN(C(=O)c2cc3c(s2)CCC3)CC1,inactive
9,CCOC(=O)C1CCN(C(=O)Nc2ccc3c(c2)nc(C)n3C)CC1,inactive
10,COc1ccc(C(CNC(=O)c2ccc(-c3cccc(C(F)(F)F)c3)o2)N2CCOCC2)cc1 (stereo not given),inactive
11,Cc1cc2c(ncn2C)c(NS(=O)(=O)c2cc(Cl)ccc2Cl)c1C,inactive
12,O=C(COC(=O)c1ccc(O)cc1)c1ccc2c(c1)OCCO2,inactive
13,Cn1c(=O)c2c(nc(SCCN3CCOCC3)n2Cc2cccc3ccccc23)n(C)c1=O,inactive
14,COCCNC(=O)CN1CCN(C(c2ccccc2)c2ccccc2)CC1,inactive
15,CN(c1ccccc1)S(=O)(=O)c1nnc(NC(=O)C2CCCCC2)s1,inactive
16,CCCc1cc(=O)[nH]c(Nc2ccc(N3CCCCC3)cc2)n1,inactive
17,COc1cccc(Nc2nc(NCCO)c3ccccc3n2)c1,inactive
18,O=C(/C=C/c1ccc(OCCCF)cc1)NCc1ccc(Cl)cc1,inactive
19,CCC(=O)c1ccc(N2CCCCCC2)c(F)c1,inactive
20,C[C@@H]1CN([C@@H](C)CO)C(=O)c2cccc(NC(=O)C3CC3)c2O[C@H]1CN(C)S(=O)(=O)c1cccs1,inactive
21,Cc1c(C(=O)c2ccc(F)cc2F)c2ccccn2c1CCc1ccccn1,inactive
22,CC(OC(=O)c1ccc(-n2cnnn2)cc1)C(=O)N(C)c1ccccc1 (stereo not given),inactive
23,CCc1cc(C(=O)N2CCN(C(=O)c3ccccc3)CC2)sc1C,inactive
24,CCOC(=O)CSc1nc(C)cc(C)c1C#N,inactive
25,O=C(Nc1ccc2oc(-c3ccc4ccccc4c3)nc2c1)c1cccs1,inactive

row,Compound,activation (light increase)
1,Cc1nn(-c2ccccc2)c(C)c1NC(=O)COC(=O)c1cccc(OC(F)F)c1,inactive
2,Cc1ccc(NS(=O)(=O)c2cn(C)cn2)cc1,inactive
3,O=C(NCc1ccccn1)c1c(O)c2c([nH]c1=O)CCCC2,inactive
4,FC(F)(F)c1nnc2sc(-c3cccs3)nn12,inactive
5,Cc1cc(=O)oc2ccc(OCc3ccccc3)cc12,inactive
6,Cn1cnc(S(=O)(=O)Nc2ccccc2F)c1,inactive
7,O=C(Nc1ccc(Cl)c(Cl)c1)Nc1ccccc1C(=O)O,inactive
8,Cc1[nH]c2ccc3c(ncn3CCC#N)c2c1C,inactive
9,Cc1noc(C)c1NC(=O)Nc1cccc2c1O[C@H](CN(C)S(=O)(=O)c1cccs1)[C@@H](C)CN([C@@H](C)CO)C2=O,inactive
10,COc1ccc(CNC(=O)CSc2nc3c(oc4ccccc43)c(=O)n2CC2CCCO2)cc1 (stereo not given),inactive
11,COC(=O)c1sc2ncccc2c1OCc1c(Cl)cccc1Cl,inactive
12,CN(C)C(=O)CCSc1nnc(-c2ccco2)o1,inactive
13,Cc1cc(Cl)ccc1OCC(=O)OCC(=O)NC1CCS(=O)(=O)C1 (stereo not given),inactive
14,Cc1cnc(C(=O)OCC(=O)NC(=O)NC(C)C)cn1,inactive
15,CCOc1ccc(/C(O)=C2/C(=O)C(=O)N(CCOCCO)C2c2ccccn2)cc1 (stereo not given),inactive
16,CCOc1ccc(C(=O)OCC(=O)N2CCCC2)cc1,inactive
17,COc1ccc(Cc2nnc(NC(=O)C3CC(=O)N(c4ccccc4C)C3)s2)cc1OC (stereo not given),inactive
18,CC(=O)N1CCC(=O)N(C(C)C)c2ccccc21,inactive
19,O=C(COC(=O)/C=C/c1cccc(F)c1)NC1CCCC1,inactive
20,O=C1C(=O)N(Cc2ccco2)C(c2cccc(Cl)c2)/C1=C(\O)c1ccc2c(c1)OCCO2 (stereo not given),inactive
21,Cc1ccc(S(=O)(=O)Nc2ccccc2F)cc1C(=O)NCCCN1CCCC1=O,inactive
22,COc1ccccc1NC(=O)CN1CCN(C(=O)C2CCCO2)CC1 (stereo not given),inactive
23,Cc1ccc2occ(C(c3nnnn3Cc3ccccc3)N3CCOCC3)c(=O)c2c1 (stereo not given),inactive
24,CCCn1nnnc1NCc1ccc(OC)cc1OC,inactive
25,COc1ccc(OCC(=O)Nc2ccccc2OC)cc1,inactive

row,Compound,activation (light increase)
1,C=CCn1c(-c2cc(OC)cc(OC)c2)n[nH]c1=S,inactive
2,CCc1ccc(-c2ccc(C(=O)O)n2CC)cc1,inactive
3,COC(=O)Cn1nc(-c2ccccc2)c2ccccc21,inactive
4,CC(C)CCOc1cccc(OCC(=O)N(C)C2CCS(=O)(=O)C2)c1 (stereo not given),inactive
5,Cc1noc(C)c1COc1ccc(C(=O)NCC(c2c(F)cccc2Cl)N(C)C)cc1 (stereo not given),inactive
6,c1cn2cc(CN3CCOCC3)nc2s1,inactive
7,C[C@H]1CN([C@@H](C)CO)C(=O)c2cccc(NC(=O)Nc3ccc4c(c3)OCO4)c2O[C@H]1CN(C)S(=O)(=O)c1ccccc1,inactive
8,CCc1ccc(C(=O)OCC(=O)NC2CCCC2)cc1,inactive
9,CCN(CC(=O)Nc1c(F)cccc1F)C(=O)C1CC(=O)N(c2ccccc2OC)C1 (stereo not given),inactive
10,Cc1ccc(C(=O)COc2cc(C)nc3nncn23)cc1,inactive
11,COc1ccccc1NS(=O)(=O)c1cccc(C(=O)NCC(c2ccco2)N2CCCCC2)c1 (stereo not given),inactive
12,Cc1ccc(S(=O)(=O)N2Cc3ccccc3CC2C(=O)Nc2ccc3c(c2)OCO3)cc1 (stereo not given),inactive
13,CC(C)c1ccc(C(=O)OCC(=O)NC2CCCC2)cc1,inactive
14,CN(Cc1nc2ccccc2n1C)C(=O)c1ccco1,inactive
15,CCCNC(=O)COC(=O)/C=C/c1ccc(C)o1,inactive
16,CC(=O)c1cccc(NC(=O)COC(=O)Cc2ccc(Cl)cc2)c1,inactive
17,Cc1cccc(C(=O)NCC(c2cccs2)N2CCOCC2)c1 (stereo not given),inactive
18,CCOC(=O)c1nnn(-c2nonc2N)c1CN1CCc2ccccc2C1,inactive
19,Cc1ccc(OCCNC(=O)c2cccc(C)c2)cc1,inactive
20,Cc1ccc(SCc2nc(-c3cccnc3)no2)cc1,inactive
21,C=CCN1C(=O)c2ccc(C(=O)N(CC)CC(=O)Nc3cc(Cl)ccc3C)cc2C1=O,inactive
22,CCN(CC1COc2ccccc2O1)C(=S)Nc1ccccc1 (stereo not given),inactive
23,CC1CN(C(=O)COC(=O)c2cccc(NS(=O)(=O)c3ccccc3)c2)CC(C)O1 (stereo not given),inactive
24,O=C(Oc1ccnc2cc(Cl)ccc12)N1CCCCCC1,inactive
25,CCN(C(=O)COc1ncnc2ccc(Br)cc12)C1CCS(=O)(=O)C1 (stereo not given),inactive
